Values joined by “and” are separate entries in the source; they are usually repeats but may differ in a detail not shown here. Equal values may be shown once.
Legend:
[1] = target: T1, human JAK2 (a.a. 828-1132) (Homo sapiens, UniProt O60674); experiment: In vitro JAK Kinase Assay (HTRF), JAK2 (for JAK2/JAK1 ratio); format: biochemical; settings: ratio of IC50s, 1 mM ATP
T1 construct: JAK2 (a.a. 828-1132); His tag (N); made in house; host or cells: insect cells (baculovirus)
Experimental: (§1) The catalytic activity of JAK1 and JAK2 was assayed by measuring the phosphorylation of a biotinylated peptide. The phosphorylated peptide was detected by homogenous time resolved fluorescence (HTRF). […] Reactions were carried out at room temperature for 1 hr and then stopped with 20 μL 45 mM EDTA, 300 nM SA-APC, 6 nM Eu-Py20 in assay buffer (Perkin Elmer, Boston, Mass.). Binding to the Europium labeled antibody took place for 40 minutes and HTRF signal was measured on a Fusion plate reader (Perkin Elmer, Boston, Mass.).

[2] = target: T2, human JAK1 (a.a. 837-1142) (Homo sapiens, UniProt P23458); experiment: In vitro JAK Kinase Assay (HTRF), JAK1; format: biochemical; settings: 1 mM ATP
T2 construct: human JAK1 (a.a. 837-1142); His tag (N); made in house; host or cells: insect cells (baculovirus)
Experimental: as §1

[3] = test system: Subjects with metastatic pancreatic adenocarcinoma that is recurrent or treatment refractory; experiment: Randomized, double-blind study of capecitabine + ruxolitinib phosphate vs capecitabine + placebo, survival by baseline CRP / mGPS; settings: for Hazard ratio (Rux/Pbo): Cox regression with formal interaction testing; for Active vs Control Hazard Ratio: ruxolitinib vs placebo; for Number of Subjects with Disease Progression, Observed: progression-free survival (death or progressive disease by RECIST 1.1)
Experimental: Baseline C-reactive protein (CRP) levels were measured for each patient prior to treatment in Arm 1 and Arm 2. Serum CRP concentrations were measured by RMB (RBM multiplexed Luminex®) commercial assay (Myriad RBM). […] The baseline CRP level was calculated on a per patient basis. The patients comprised two groups. Group 1 included all patients who were randomized and took Study Drug. […] For Group 1, the CRP level was the last tested CRP level taken before first dose of Study Drug. For Group 2, the last available value of CRP was taken, if available, for example from screening procedures. With baseline CRP levels for all patients, the median was calculated using normal statistical methods known to one skilled in the art.

[4] = Cox regression analysis of overall survival using baseline predictors, CRP > 13 mg/L, ruxolitinib arm
[5] = overall survival, C-Reactive Protein > 13 (μg/mL), Intent-to-Treat, capecitabine + ruxolitinib arm, N = 31
[6] = overall survival, C-Reactive Protein > 13 (μg/mL), ruxolitinib arm, N = 31
[7] = overall survival, C-Reactive Protein ≦ 13 (μg/mL), Intent-to-Treat, capecitabine + ruxolitinib arm, N = 28
[8] = overall survival, C-Reactive Protein ≦ 13 (μg/mL), ruxolitinib arm, N = 28
[9] = patients with CRP<13 mg/L, ruxolitinib group
[10] = patients with CRP>13 mg/L, ruxolitinib group
[11] = progression-free survival, Table 3, C-Reactive Protein ≦ 13 (μg/mL), ruxolitinib arm, N = 28
[12] = progression-free survival, Table 4, C-Reactive Protein ≦ 13 (μg/mL), ruxolitinib arm, N = 31

T1 sequence (O60674 828-1132): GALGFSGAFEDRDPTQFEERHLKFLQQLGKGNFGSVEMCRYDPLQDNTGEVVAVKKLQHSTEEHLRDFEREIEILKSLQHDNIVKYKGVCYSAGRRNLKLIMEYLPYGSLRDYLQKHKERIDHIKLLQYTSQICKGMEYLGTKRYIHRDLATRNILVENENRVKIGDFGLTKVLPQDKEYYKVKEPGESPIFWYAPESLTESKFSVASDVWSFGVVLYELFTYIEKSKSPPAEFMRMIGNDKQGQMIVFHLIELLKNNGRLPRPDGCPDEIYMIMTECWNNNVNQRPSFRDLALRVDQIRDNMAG
T2 sequence (P23458 849-1154): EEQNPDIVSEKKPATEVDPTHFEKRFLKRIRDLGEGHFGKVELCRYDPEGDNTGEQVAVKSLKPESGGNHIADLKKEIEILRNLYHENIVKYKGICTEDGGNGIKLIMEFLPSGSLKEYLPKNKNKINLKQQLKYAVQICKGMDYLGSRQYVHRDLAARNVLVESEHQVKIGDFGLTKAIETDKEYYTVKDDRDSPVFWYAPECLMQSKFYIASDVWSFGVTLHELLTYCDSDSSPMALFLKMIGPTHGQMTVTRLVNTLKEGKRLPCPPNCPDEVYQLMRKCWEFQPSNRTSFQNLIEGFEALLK

SMILES: N#CCC(C1CCN(c2cccc(Cl)n2)C1)n1cc(-c2ncnc3[nH]ccc23)cn1 (single isomer, unassigned) [Compound 3, 3-[1-(6-chloropyridin-2-yl)pyrrolidin-3-yl]-3-[4-(7H-pyrrolo[2,3-d]pyrimidin-4-yl)-1H-pyrazol-1-yl]propanenitrile]
- JAK2/JAK1 [1]: >10
- IC50 [2]: < 10 nM

SMILES: C[C@@H](O)c1nc2cnc3ccsc3c2n1[C@H]1CC[C@H](CC#N)OC1 [Compound 1, ((2R,5S)-5-{2-[(1R)-1-hydroxyethyl]-1H-imidazo[4,5-d]thieno[3,2-b]pyridin-1-yl}tetrahydro-2H-pyran-2-yl)acetonitrile]
- JAK2/JAK1 [1]: >10
- IC50 [2]: < 100 nM

SMILES: N#CCC(C1CCN(c2nc3cccnc3o2)C1)n1cc(-c2ncnc3[nH]ccc23)cn1 (stereo not shown) [Compound 4, 3-(1-[1,3]oxazolo[5,4-b]pyridin-2-ylpyrrolidin-3-yl)-3-[4-(7H-pyrrolo[2,3-d]pyrimidin-4-yl)-1H-pyrazol-1-yl]propanenitrile]
- JAK2/JAK1 [1]: >10
- IC50 [2]: < 10 nM

SMILES: N#CCC(CN1CCN(C(=O)c2ccc(C#N)cc2F)CC1)n1cc(-c2ncnc3[nH]ccc23)cn1 (stereo not shown) [Compound 5, 4-[(4-{3-cyano-2-[4-(7H-pyrrolo[2,3-d]pyrimidin-4-yl)-1H-pyrazol-1-yl]propyl}piperazin-1-yl)carbonyl]-3-fluorobenzonitrile]
- JAK2/JAK1 [1]: >10
- IC50 [2]: < 10 nM

SMILES: N#CCC(CN1CCN(C(=O)c2ccc(C#N)cc2F)CC1)n1ccc(-c2ncnc3[nH]ccc23)c1 (stereo not drawn) [Compound 6, 4-[(4-{3-cyano-2-[3-(7H-pyrrolo[2,3-d]pyrimidin-4-yl)-1H-pyrrol-1-yl]propyl}piperazin-l-yl)carbonyl]-3-fluorobenzonitrile]
- JAK2/JAK1 [1]: >10
- IC50 [2]: < 10 nM

SMILES: N#CCC1(n2cc(-c3ncnc4[nH]ccc34)cn2)CN(C2CCN(C(=O)c3ccnc(C(F)(F)F)c3F)CC2)C1 [Compound 7, {l-{l-[3-Fluoro-2-(trifluoromethyl)isonicotinoyl]piperidin-4-yl}-3-[4-(7H-pyrrolo[2,3-d]pyrimidin-4-yl)-1H-pyrazol-1-yl]azetidin-3-yl}acetonitrile]
- JAK2/JAK1 [1]: >10
- IC50 [2]: < 10 nM

SMILES: N#CCC1(n2cc(-c3ncnc4[nH]ccc34)cn2)CN(C2CCN(C(=O)Nc3ccc(F)cc3C(F)(F)F)CC2)C1 [Compound 8, 4-{3-(Cyanomethyl)-3-[4-(7H-pyrrolo[2,3-d]pyrimidin-4-yl)-1H-pyrazol-1-yl]azetidin-1-yl}-N-[4-fluoro-2-(trifluoromethyl)phenyl]piperidine-1-carboxamide]
- JAK2/JAK1 [1]: >10
- IC50 [2]: < 10 nM

SMILES: N#CCC1(n2cc(-c3ncnc4[nH]ccc34)cn2)CN(C2CCN(C(=O)c3ccnc(C(F)(F)F)n3)CC2)C1 [Compound 9, [3-[4-(7H-pyrrolo[2,3-d]pyrimidin-4-yl)-1H-pyrazol-1-yl]-1-(l-{[2-(trifluoromethyl)pyrimidin-4-yl]carbonyl}piperidin-4-yl)azetidin-3-yl]acetonitrile]
- JAK2/JAK1 [1]: >10
- IC50 [2]: < 10 nM

SMILES: N#CC[C@]1(n2cc(-c3ncnc4[nH]ccc34)cn2)C[C@H](N2CCN(C(=O)c3ccnc(C(F)(F)F)n3)CC2)C1 [Compound 10, [trans-1-[4-(7H-pyrrolo[2,3-d]pyrimidin-4-yl)-1H-pyrazol-1-yl]-3-(4-{[2-(trifluoromethyl)pyrimidin-4-yl]carbonyl}piperazin-1-yl)cyclobutyl]acetonitrile]
- JAK2/JAK1 [1]: >10
- IC50 [2]: < 10 nM

SMILES: N#CC[C@]1(n2cc(-c3ncnc4[nH]ccc34)cn2)C[C@H](N2CCC(Oc3cc(CN4CC(O)C4)cc(C(F)(F)F)n3)CC2)C1 [Compound 11, {trans-3-(4-{[4-[(3-hydroxyazetidin-1-yl)methyl]-6-(trifluoromethyl)pyridin-2-yl]oxy}piperidin-1-yl)-1-[4-(7H-pyrrolo[2,3-d]pyrimidin-4-yl)-1H-pyrazol-1-yl]cyclobutyl}acetonitrile]
- JAK2/JAK1 [1]: >10
- IC50 [2]: < 10 nM

SMILES: N#CC[C@]1(n2cc(-c3ncnc4[nH]ccc34)cn2)C[C@H](N2CCC(Oc3cc(CN4CCC[C@H]4CO)cc(C(F)(F)F)n3)CC2)C1 [Compound 12, {trans-3-(4-{[4-{[(2S)-2-(hydroxymethyl)pyrrolidin-1-yl]methyl}-6-(trifluoromethyl)pyridin-2-yl]oxy}piperidin-1-yl)-1-[4-(7H-pyrrolo[2,3-d]pyrimidin-4-yl)-1H-pyrazol-1-yl]cyclobutyl}acetonitrile]
- JAK2/JAK1 [1]: >10
- IC50 [2]: < 10 nM

SMILES: N#CC[C@]1(n2cc(-c3ncnc4[nH]ccc34)cn2)C[C@H](N2CCC(Oc3cc(CN4CCC[C@@H]4CO)cc(C(F)(F)F)n3)CC2)C1 [Compound 13, {trans-3-(4-{[4-{[(2R)-2-(hydroxymethyl)pyrrolidin-1-yl]methyl}-6-(trifluoromethyl)pyridin-2-yl]oxy}piperidin-1-yl)-1-[4-(7H-pyrrolo[2,3-d]pyrimidin-4-yl)-1H-pyrazol-1-yl]cyclobutyl}acetonitrile]
- JAK2/JAK1 [1]: >10
- IC50 [2]: < 10 nM

SMILES: C[C@H](NC(=O)c1cc(F)c(N2CC(CC#N)(n3cc(-c4ncnc5[nH]ccc45)cn3)C2)cc1F)C(F)(F)F [Compound 16, 4-{3-(cyanomethyl)-3-[4-(7H-pyrrolo[2,3-d]pyrimidin-4-yl)-1H-pyrazol-1-yl]azetidin-1-yl}-2,5-difluoro-N-[(1S)-2,2,2-trifluoro-1-methylethyl]benzamide]
- JAK2/JAK1 [1]: >10
- IC50 [2]: < 10 nM

SMILES: N#CC[C@H](C1CCCC1)n1cc(-c2ncnc3[nH]ccc23)cn1 [Ruxolitinib, ruxolitinib]
- (%) subjects Censored [3, 4]: (20.0) %
- (%) subjects who died, Observed [3, 4]: (80.0) %
- Number subjects Censored [3, 4]: 6
- Number subjects who died, Observed [3, 4]: 24
- Hazard ratio (Rux/Pbo) ([3]; subgroup CRP > 13 mg/L): 0.473
- Hazard ratio (Rux/Pbo) ([3]; subgroup Karnofsky: 60-80): 0.799
- Hazard ratio (Rux/Pbo) ([3]; subgroup Low albumin): 0.618
- HR for progression-free survival (PFS) ([3]; intent-to-treat analysis including all randomized patients): 0.75
- (%) of Subjects Censored [3, 5]: ( 19.4%)
- (%) of Subjects Died, Observed [3, 5]: ( 80.6%)
- Number of Subjects Censored [3, 5]: 6
- Number of Subjects Died, Observed [3, 5]: 25
- Median Time to Event [3, 6]: 83.0 days
- Month 3 Survival Rate(%) [3, 6]: 48.4%
- Month 6 Survival Rate(%) [3, 6]: 41.5%
- Month 9 Survival Rate(%) [3, 6]: 16.5%
- Month 12 Survival Rate(%) [3, 6]: 11.0%
- Active vs Control Hazard Ratio ([3]; overall survival, C-Reactive Protein > 13 (μg/mL), Cox regression): 0.473
- (%) of Subjects Censored [3, 7]: ( 28.6%)
- (%) of Subjects Died, Observed [3, 7]: ( 71.4%)
- Number of Subjects Censored [3, 7]: 8
- Number of Subjects Died, Observed [3, 7]: 20
- Median Time to Event [3, 8]: 185.5 days
- Month 3 Survival Rate(%) [3, 8]: 82.1%
- Month 6 Survival Rate(%) [3, 8]: 50.0%
- Month 9 Survival Rate(%) [3, 8]: 37.3%
- Month 12 Survival Rate(%) [3, 8]: 19.9%
- Active vs Control Hazard Ratio ([3]; overall survival, C-Reactive Protein ≦ 13 (μg/mL), Cox regression): 0.887
- Hazard Ratio, Treatment (ruxolitinib vs placebo) ([3]; overall survival, CRP > 13 mg/L, Cox regression accounting for baseline characteristics): 0.50 and 0.501
- hazard ratio for PFS ([3]; patients with CRP<13 mg/L): 0.82
- probability of PFS at 3 months [3, 9]: 39%
- probability of PFS at 6 months [3, 9]: 25%
- probability of PFS at 9 months [3, 9]: 10%
- HR for PFS ([3]; patients with CRP>13 mg/L): 0.62
- proportion showing disease stabilization (RECIST v1.1) ([3]; patients with CRP>13 mg/L receiving ruxolitinib with postbaseline assessments (N=19)): 68.4%
- probability of progression-free survival at 3 months [3, 10]: 35%
- probability of progression-free survival at 6 months [3, 10]: 21%
- probability of progression-free survival at 9 months [3, 10]: 11%
- HR for OS ([3]; patients with mGPS of 0 (N=51)): 0.91
- HR for OS ([3]; patients with mGPS of 1 (N=34)): 0.71
- HR for OS ([3]; patients with mGPS of 2 (N=36)): 0.49
- HR (survival) ([3]; post-hoc analysis, patients with CRP≦10 mg/L (N=51)): 0.91
- HR in favor of ruxolitinib (survival) ([3]; post-hoc analysis, patients with a CRP>10 mg/L (N=70)): 0.60
- Number of Subjects with Disease Progression, Observed ([3]; Table 3, C-Reactive Protein ≦ 13 (μg/mL), ruxolitinib arm, N = 28): 26
- Number of Subjects with Disease Progression, Observed ([3]; Table 4, C-Reactive Protein ≦ 13 (μg/mL), ruxolitinib arm, N = 31): 26
- (%) of Subjects Censored [3, 11]: ( 7.1%)
- (%) of Subjects with Disease Progression, Observed [3, 11]: ( 92.9%)
- Median Time to Event [3, 11]: 80.0 days
- Month 3 Survival Rate(%) [3, 11]: 39.3%
- Month 6 Survival Rate(%) [3, 11]: 25.0%
- Month 9 Survival Rate(%) [3, 11]: 10.0%
- Number of Subjects Censored [3, 11]: 2
- Active vs Control Hazard Ratio ([3]; progression-free survival, Table 3, C-Reactive Protein ≦ 13 (μg/mL)): 0.818
- (%) of Subjects Censored [3, 12]: ( 16.1%)
- (%) of Subjects with Disease Progression, Observed [3, 12]: ( 83.9%)
- Median Time to Event [3, 12]: 48.0 days
- Month 3 Survival Rate(%) [3, 12]: 34.5%
- Month 6 Survival Rate(%) [3, 12]: 20.7%
- Month 9 Survival Rate(%) [3, 12]: 11.0%
- Month 12 Survival Rate(%) [3, 12]: 0.0%
- Number of Subjects Censored [3, 12]: 5
- Active vs Control Hazard Ratio ([3]; progression-free survival, Table 4, C-Reactive Protein ≦ 13 (μg/mL)): 0.619

Reference: patent US20150065447A1, “SURVIVAL BENEFIT IN PATIENTS WITH SOLID TUMORS WITH ELEVATED C-REACTIVE PROTEIN LEVELS” (Incyte Corporation, priority 2013, published 2015)
